Results taken from US20240181121A1, “A WOUND CARE PRODUCT COMPRISING AN ANTIMICROBIAL COATING” (Mölnlycke Health Care AB, priority 2021, published 2024).

What was measured:
Staphylococcus aureus = conditions: prototype coated with 75 μg/cm^2; sterilized; 2 ml SWF
Experimental: (§1) Test organisms: P. aeruginosa ATCC 9027 (bacteria), S. aureus ATCC 6538 (bacteria), C. albicans ATCC 10231 (fungi), P. aeruginosa ATCC PAO1 (bacteria, example 1b).
(§2) Test time: 24 h for bacteria and 48 h for fungi
(§3) Start inoculum: 1×10^6 CFU/ml for bacteria, 4×10^6 CFU/ml for fungi.

[1] = tested on: P. aeruginosa (ATCC 9027); experiment: Minimum bactericidal concentration (MBC) in solution, simulated wound fluid; type: cell-based
Experimental: as §1, §2, §3
(§4) Tests were performed in solution to compare the potency of silver sulfate, chlorhexidine phosphate and chlorhexidine gluconate, using simulated wound fluid, SWF (fetal bovine serum (FBS) and Peptone Water (PW) mixed in equal proportions, which correspond to the protein and electrolyte concentration of wound exudates (Emiko Aiba-Kojima, M D et. al Wound Rep Reg (2007) 15 511-520; Trengove, N et al Wound Rep Reg (1996) 4 1067-1927)) as test medium. The aim was to define the lowest concentration of an antimicrobial agent required to kill the specific microorganism. The test microorganisms were suspended in SWF, in which antimicrobial substances were added at different concentration before subculture in well microtiter plates.

[2] = tested on: Candida albicans ATCC 10231; experiment: as above; type: cell-based; conditions: for MBC: Candida albicans, simulated wound fluid, 48 h
Experimental: as §1, §2, §3, §4

S. aureus ATCC 6538 = experiment: as above; type: cell-based
Experimental: as §1, §2, §3, §4

[3] = tested on: Pseudomonas aeruginosa PAO1 biofilms; experiment: Reduction of biofilm counts in contact with CHP solution (collagen matrix, SWF); type: cell-based; conditions: for Log count / Log reduction: biofilm, 24 h
Experimental: Tests were performed in solution to evaluate the potency of chlorhexidine phosphate (CHP) against biofilms cultured on a collagen matrix, using SWF as test medium. The aim was to define if concentrations of CHP that can be spray coated on the surface of the silicone contact layer would have an impact on the biofilms. The test microorganism was Pseudomonas aeruginosa PAO1, suspended in a SWF solution, and placed on a collagen matrix in wells of 24-well plates. The well plates were incubated at 37° C., 95% relative humidity for 24 h to induce formation of biofilms. After incubation and formation of biofilms, the antimicrobial substance CHP was added on top of biofilms at different concentrations in triplicates and were incubated for another 24 h at 37° C., 95% relative humidity. […] The number of viable counts were determined by plating on PetriFilms.

[4] = Rate of dissolution of antimicrobial coating in water, LC-MS; type: physicochemical; conditions: 2 ml water; sterilized coated wound contact layer
Experimental: The comparison was made between prototypes spray coated with an antimicrobial solution of chlorhexidine phosphate (0.56% by weight) and prototypes spray coated with an antimicrobial solution of chlorhexidine acetate (0.68% by weight). The spray coating was performed with the same parameters and on the same equipment, as described with respect to Example 1 and 2 hereinbefore. After spraying, the samples were sent to sterilization on production site to undergo typical sterilization cycle required for antimicrobial products. […] Triplicates of silicone coated films (wound contact layers) and release liners were separated and placed in wells in contact with 2 ml solution of water during 3 hours, then removed and placed in a new well for 24 hours in order to evaluate instant (>3 h) and short (>24 h) term dissolution. After calibration of the equipment against the solutions of interest, the concentration of CHP and CHAc in the different wells was evaluated by Liquid chromatography-mass spectrometry in order to quantify the amount of antimicrobial coating that was able to dissolve instantly or shortly.

[5] = tested on: all microorganism (same microorganisms as used in Example 1a); experiment: Antimicrobial effect of coating sprayed on silicone wound contact layer; type: cell-based, S. aureus, P. aeruginosa, C. albicans; conditions: sterilized, 2 ml SWF
Experimental: The prototypes were punched into disks of 7 cm^2 and placed in a well in contact with 2 ml SWF containing a solution of microorganism in suspension (same microorganisms as used in Example 1a). The wound contact layer used in the tests comprised a polyurethane film coated with 200 gsm of a silicone adhesive.
Microorganism growth was evaluated on the silicone layer; i.e. the skin facing surface, and in suspension in the liquid.

In the case of `O=S(=O)([O-])[O-].[Ag+].[Ag+]` [Silver sulfate, silver sulfate], the “log reduction from inoculum size” value (Staphylococcus aureus) is reported as under 4 log, the MBC ([1]; 24 h) is reported as 160 µM and the MBC [2] is reported as 5000 µM. For the same compound, the MBC (S. aureus ATCC 6538; 24 h) was 310 µM.

Work on `N=C(NCCCCCCNC(=N)NC(=N)Nc1ccc(Cl)cc1)NC(=N)Nc1ccc(Cl)cc1.O=C(O)[C@H](O)[C@@H](O)[C@H](O)[C@H](O)CO.O=C(O)[C@H](O)[C@@H](O)[C@H](O)[C@H](O)CO` [CHG, chlorhexidine gluconate] yielded an MBC ([1]; 24 h) of 520 µM, an MBC [2] of 60 µM and an MBC (S. aureus ATCC 6538; 24 h) of 30 µM.

`N=C(NCCCCCCNC(=N)NC(=N)Nc1ccc(Cl)cc1)NC(=N)Nc1ccc(Cl)cc1` [CHP, chlorhexidine phosphate] gave a Log count ([3]; CHP 37 uM (sample 1)) of 4.4, a Log reduction ([3]; CHP 37 uM (sample 1)) of 5.5 and a Log count ([3]; CHP 75 uM (sample 2)) of 3.9. The Log reduction ([3]; CHP 75 uM (sample 2)) was 6.1, the Log count ([3]; CHP 150 uM (sample 3)) was 4.1 and the Log reduction ([3]; CHP 150 uM (sample 3)) was 5.9. For the same compound, the “log reduction of biofilms vs FDA requirement” value ([3]; CHP solutions of 37 μM, 75 μM, 150 μM) was over 4, the “Instant dissolution % Released from silicone after 3 h” value [4] was 100% and the “Total released in 24 h” value [4] was 100%. The MBC ([1]; Pseudomonas aeruginosa, ATCC9027, 24 h) was 26 µM, the MBC ([2]; ATCC10231) was 26 µM and the “times more silver than chlorhexidine phosphate required to kill Candida albicans” value ([2]; ratio silver vs chlorhexidine phosphate) was “up to 190 times”. For the same compound, the MBC (S. aureus ATCC 6538; Staphylococcus aureus, ATCC6538, 24 h) was 7 µM, the “elimination of microorganism on the silicone surface and in the solution” value ([5]; prototype sprayed at 45 μg/cm^2) was “full elimination” and the “elimination of microorganism on the silicone surface and in the solution” value ([5]; prototype sprayed at 75 μg/cm^2) was “full elimination”.

With `CC(=O)O.CC(=O)O.NC(=N\CCCCCC/N=C(N)/N=C(\N)Nc1ccc(Cl)cc1)/N=C(\N)Nc1ccc(Cl)cc1` [CHAc, chlorhexidine acetate, reference compound] the “Instant dissolution % Released from silicone after 3 h” value [4] was 28% and the “Short time dissolution Additional % released from silicone after additional 21 h” value [4] was 11%.
